{"source": "patent US20130136811A1", "about": "“Compositions and Methods for Pain Reduction” (priority 2010, published 2013)", "key": {"[1]": {"system": "primary cultures of mouse cortical neurons", "test": "NMDAR-mediated excitotoxicity, LDH cell death assay", "assay_type": "cell-based", "details": "for neuroprotective effect (% protection): NMDA 200 μM 5 minutes, glycine 10 μM, LDH 24 hours after", "experimental": "Studies were carried out to determine whether application of Wogonin can prevent N-methyl-D-Aspartate receptor (NMDAR)-mediated excitotoxicity in primary neuronal cultures from mouse cortex in vitro. In particular, detailed dose/response curves of Wogonin applied together with and for the duration of application of NMDA were generated. NMDAR-induced cytotoxicity can lead to fulminant cell death, necrosis, or a delayed form of cell death (apoptosis). While necrosis leads to immediate cell lysis, apoptotic cell death develops over time and is distinguished by a number of criteria such as characteristic morphological changes and DNA fragmentation. The LDH assay was used for the determination of cell death. This assay assesses primary necrosis as well as secondary, necrotic cell death subsequent to apoptosis.\nFor these experiments, cytotoxicity assays were conducted in primary cultures of mouse cortical neurons after 10 days in vitro using an art-recognized assay systema (Sun X, Chan L N, Gong X, Sucher N J. N-methyl-D-Aspartate receptor antagonist activity in traditional Chinese stroke medicines. NeuroSignals, 2003; 12:31-38.) Cultured neurons were exposed to NMDA (200 μM; 5 minutes) and co-agonist glycine (10 μM) in the nominal absence of magnesium and the presence of increasing concentrations of Wogonin. Measurements were performed for each dose of Wogonin in triplicate in at least three independent experiments. Wogonin was added to the culture in three different ways: 1) before, concomitant with and after NMDA, 2) concomitant with and after NMDA and 3) after NMDA. Twenty-four hours after exposure to NMDA cell death is determined by colorimetric lactate dehydrogenase (LDH) assay."}, "[2]": {"system": "mouse formalin pain model", "test": "mouse formalin pain model (paw licking)", "assay_type": "in vivo", "details": "for Duration of Licking: 200 mg/kg, individual animals 01-08; for Area Under the Curve, Drug Treated: 200 mg/kg i.p.", "experimental": "The formalin test for antinociceptive activity is described in numerous publications, e.g., Hunskaar, S. O. B. Fasmer, and K. Hole, J. Neurosci. Methods 14: 69-76 (1985). The formalin test is a chemically-induced tonic pain model in which biphasic changes of nociceptive behavior are assessed and spinal/supraspinal plasticity of nociception is considered as a molecular basis for neuropathic pain particularly during the second (late) phase of the test, during which most clinically used drugs against neuropathic pain are active. The formalin test is accepted as an art recognized model of persistent clinical pain.\nThe formalin test (Wheeler-Aceto H, Porreca F, Cowan A. The rat paw formalin test: comparison of noxious agents. Pain 1990; 40:229-38) involves injection of 0.5% formalin into the mouse hind paw. The injection elicits a distinct biphasic behavioral profile in response to the formalin injection characterized by licking of the affected paw, and the number of licks is measured as a proxy for perceived pain. The first (acute) phase corresponds to the direct stimulation of peripheral fibers, while the second (inflammatory) phase is caused by the release of inflammatory mediators from the damaged tissue and nerve endings. Thus, this model is ideally suited to test the efficacy of Wogonin against the acute and chronic hyper-responsive neuronal discharges following activation of peripheral nerve fibers.\nThe results of the formalin test are given both as raw data (“Response”) and in an aggregate, analyzed form (“Analysis”). In the Response section, each Trial involves sixteen animals, eight controls given an i.p. injection of vehicle and eight given Wogonin at a specified dose. The data recorded for each animal is the amount of time spent licking the affected hind paw in a two-minute period. These two-minute periods occur at five-minute intervals and continue for […]. […] From this plot, the area under the cure (AUC) is determined for each animal during both the acute and inflammatory stages. The AUC for each phase is shown in the analysis section of the data sheet for both control and Wogonin-treated animals. The AUC for each Wogonin-treated animal is compared to the average result from the control group, yielding an average percent of control (reported with the SEM and p value). Significant reductions in this number indicate a reduction in licking, and, presumably, a reduction of perceived pain.\nMale Swiss Webster NIH mice (20-30 g; Harlan, San Diego, Calif.) were used in the experiments described herein. Food was withdrawn on the day of experiment. Mice were placed in Plexiglass jars for at least 1 hour to accommodate to the environment. Following the accommodation period, mice were weighed and given Wogonin administered intraperitoneal (i.p.) or the appropriate volume of vehicle (10% Tween-80). Fifteen minutes after the i.p. dosing, mice were injected with formalin (20 μL of 5% formaldehyde solution in saline) into the dorsal surface of the right hind paw. Mice were transferred to the Plexiglass jars and monitored for the amount of time spent licking or biting the injected paw. Periods of licking and biting were recorded in 5 minute intervals for 40 minutes after the formalin injection. All experiments were done in a blinded manner. The early phase (acute) of the formalin response is measured as licking/biting between 0-10 minutes, and the late phase (inflammatory) is measured from 10-40 minutes. Differences between vehicle and Wogonin-treated groups are analyzed by one-way analysis of variance (ANOVA). A P value <0.05 is considered significant. Activity in blocking the acute and second phase of formalin-induced paw-licking activity is indicative that compounds are efficacious for acute and chronic pain. A significant response to both the acute and the inflammatory phases of the test was observed."}}, "note": "Several values for one entry are separate records, joined by “and”; a condition that tells them apart may be missing. Equal values may be shown once.", "data": [{"smiles": "COc1c(O)cc(O)c2c(=O)cc(-c3ccccc3)oc12", "note": "[Wogonin, 5,7-dihydroxy-8-methoxyflavone]", "values": [{"measurement": "neuroprotective effect (% protection)", "setting": "[1]; 10^−4 M Wogonin", "result": "> 75", "unit": "%"}, {"measurement": "neuroprotective effect (% protection)", "setting": "[1]; 10^−9 M Wogonin", "result": 0, "unit": "%"}, {"measurement": "IC50", "setting": "[1]; Cortical neurone, mouse cortical neurons, LDH assay, read-out: IC50, inhibition of neuronal death on exposure to N-methyl-D-aspartate", "result": 2000, "unit": "nM"}, {"measurement": "Duration of Licking", "setting": "[2]; 0 mm", "result": "0.00 sec (3×) and 35.48 sec and 21.75 sec and 53.96 sec and 44.26 sec and 32.29 sec"}, {"measurement": "Duration of Licking", "setting": "[2]; 5 min", "result": 0.00, "unit": "s"}, {"measurement": "Duration of Licking", "setting": "[2]; 10 min", "result": 0.00, "unit": "s"}, {"measurement": "Duration of Licking", "setting": "[2]; 20 min", "result": "0.00 sec (7×) and 16.00 sec"}, {"measurement": "Duration of Licking", "setting": "[2]; 25 min", "result": "0.00 sec (5×) and 3.89 sec and 20.61 sec and 10.96 sec"}, {"measurement": "Duration of Licking", "setting": "[2]; 30 min", "result": "0.00 sec (4×) and 29.12 sec and 55.07 sec and 2.95 sec and 37.69 sec"}, {"measurement": "Duration of Licking", "setting": "[2]; 35 min", "result": "0.00 sec (6×) and 21.24 sec and 12.73 sec"}, {"measurement": "Duration of Licking", "setting": "[2]; 40 min", "result": "0.00 sec (6×) and 20.18 sec and 27.36 sec"}, {"measurement": "Area Under the Curve, Drug Treated", "setting": "[2]; Acute phase", "result": 58.7}, {"measurement": "Area Under the Curve, Drug Treated", "setting": "[2]; Inflammatory phase", "result": 146.3}, {"measurement": "overt toxicity", "setting": "[2]; mouse models", "result": "Overt toxicity was not seen"}]}]}
